pKd: −log10 of the molar value.
What was measured:
[1] = target: Agrobacterium tumefaciens ThuE (AtThuE) sucrose binding protein carrying N192D (SEQ ID NO: 2) fused between ECFP and EYFP, sensor FLIPsuc4μ (FLIPsuc), wt (indic (Agrobacterium fabrum, UniProt A9CF11, N212D)); experiment: in vitro FRET titration of purified sensor FLIPsuc4μ; details: for binding (extent relative to sucrose): 5× Kd (20 μM), FRET micro plate assay (FIG. 4)
Source text: (§1) Because the maltose/trehalose/sucrose binding protein from Agrobacterium tumefaciens (AtThuE) is 78.9% identical over predicted mature region of the SmThuE protein (SEQ ID NO: 2) and is 21.4% homologous to the maltose binding protein from E. coli (malE), we attempted to clone the AtThuE binding protein. To isolate the gene, a PCR product from genomic Agrobacterium tumefaciens (strain C58C1) DNA encoding mature AtThuE without signal sequence and stop codon was cloned into the KpnI site between ECFP and EYFP genes (FIG. 1A). The chimeric gene was inserted into pRSET (Invitrogen) and transferred to E. coli BL21(DE3)Gold (Stratagene). […] It is unknown whether this difference corresponds to a mutation or natural variation. Since N192D was outside the binding pocket and since AtThuE carrying the mutation was functional as a sugar sensor (see Table 1), all further experiments were carried out with the nanosensor named FLIPsuc4μ carrying the mutation N192D. FLIPsuc proteins were extracted from BL21(DE3)gold and purified as described (Fehr et al. 2002).
(§2) A DNA fragment encoding the mature Agrobacterium tumefaciens maltose/trehalose/sucrose BP protein was fused between the ECFP and EYFP sequences as described above. The chimeric gene was expressed in E. coli and the protein product purified and assayed for substrate specificity.
(§3) Substrate titration curves and substrate specificity analysis were performed on Safire (Tecan) fluorometer. ECFP was excited at 433 nm and emission was set to 485 nm and 528 nm for ECFP and EYFP, respectively (bandwidth 12 nm). All in vitro analyses were performed in 20 mM MOPS buffer at pH 7. FRET was determined as EYFP-ECFP emission intensity ratio. Using the change in ratio upon ligand binding, binding constants (Kd) were determined by fitting substrate titration curves to equation 1: S=1−(r−rmin)(rmax−rmin)=[S]b/[P]t=n[S]/(Kd+[S]), where [S] is substrate concentration; [S]b, concentration of bound substrate; n, number of binding sites; [P]t, total concentration of binding protein; r, ratio; rmin, minimum ratio in absence of ligand; rmax, maximum ratio at saturation. Hill coefficients were determined using Hill equation 2: S=(n[S]^n)/(Kd+[S]^n).
(§4) SmThuE is mainly functioning as a trehalose and maltose binding protein. Sucrose is thought to be transported to a lesser extent. FLIPsuc4μ was therefore incubated with trehalose, maltose and other related sugars to test for its binding capacities. Substrate-induced conformational changes were measured using FRET in micro plate assays. […] Maltose and glucose were chosen for further analysis of FLIPsuc4μ and its mutants since they are important sugars in plants and might therefore interfere with sucrose measurements in vivo. […] Most mutants show similar patterns with higher affinity for maltose than sucrose. FLIPsuc-10μ is the most significant example with an 83 times higher affinity for maltose than sucrose (Table 1). The D115 mutants both show the highest affinity for maltose compared to sucrose and […], but to a different extent.

[2] = test system: Alicyclobacillus acidocaldarius maltose uptake; details: cited from earlier work
[3] = target: Agrobacterium tumefaciens ThuE (AtThuE) sucrose binding protein carrying N192D (SEQ ID NO: 2) fused between ECFP and EYFP, sensor FLIPsuc4μ (FLIPsuc), wt (indicator SEQ ID NO: 4) (Agrobacterium fabrum, UniProt A9CF11, N212D); experiment: in vitro FRET titration of purified sensor FLIPsuc4μ
Source text: as §1, §2, §3, §4

[4] = target: Agrobacterium tumefaciens AtThuE sensor FLIPsuc4μ variant D115E (FLIPsuc3m, FLIPsucD115E) (Agrobacterium fabrum, UniProt A9CF11, D135E/N212D); experiment: in vitro FRET titration of affinity mutant FLIPsuc3m; assay type: binding; details: for pKd: Kd; for Δratio (delta ratio): no binding to saturated binding
Experimental: as §3
(§5) To expand the dynamic range of the sucrose sensor, site directed mutagenesis was used as described above to lower the binding affinity of the sucrose binding domain. Affinity mutants of FLIPsuc4μ were generated. Alignment together with modeling of AtThuE with maltose binding proteins that have been crystallized helped predict residues important for ligand binding. […] Mutant forms carrying substitutions F113A, D115A, D115E, D115N, W244A, Y246A and W283A were generated using Kunkel mutagenesis (Kunkel et al. 1991) in the mutant background of FLIPsuc41t. The affinity mutants were designated as FLIPsucF113A, FLIPsucW283A, FLIPsucD115A, FLIPsucD115E, FLIPsucY246A, and FLIPsucW244A. All six mutants have lower affinities for sucrose than that of FLIPsuc4μ, with a Kd value varying from 10 μM to the higher mM range (Table 1). The starting ratio between EYFP and ECFP ranges from 1.4 to close to 2.0, which is also similar to what has been seen in other sugar sensors (FLIPmal, FLIPglu and FLIPrib). Introducing substitution F113A into the ThuE moiety of FLIPsuc4μ produced FLIPsuc10μ, which has a binding constant (Kd) of 10 μM for sucrose, thus providing a range for sucrose quantification between at least 1 μM and 90 μM (Table 1).

[5] = target: Agrobacterium tumefaciens AtThuE sensor FLIPsuc4μ variant W244A (FLIPsuc46m, FLIPsucW244A) (Agrobacterium fabrum, UniProt A9CF11, N212D/W264A); experiment: in vitro FRET titration of affinity mutant FLIPsuc46m; assay type: binding
Experimental: as §3, §5

[6] = target: Agrobacterium tumefaciens AtThuE sensor FLIPsuc4μ variant Y246A (FLIPsuc15m, FLIPsucY246A) (Agrobacterium fabrum, UniProt A9CF11, N212D/Y266A); experiment: in vitro FRET titration of affinity mutant FLIPsuc15m; assay type: binding
Experimental: as §3, §5

[7] = target: Agrobacterium tumefaciens AtThuE sensor FLIPsuc4μ variant W283A (FLIPsuc88μ, FLIPsucW283A) (Agrobacterium fabrum, UniProt A9CF11, N212D/W303A); experiment: in vitro FRET titration of affinity mutant FLIPsuc88μ; assay type: binding
Experimental: as §3, §5

[8] = target: Agrobacterium tumefaciens AtThuE sensor FLIPsuc4μ variant F113A (FLIPsuc10μ, FLIPsucF113A) (Agrobacterium fabrum, UniProt A9CF11, F133A/N212D); experiment: in vitro FRET titration of affinity mutant FLIPsuc10μ; assay type: binding; details: for Δratio (change in ratio): in vitro, no binding to saturated binding
Experimental: as §3, §5

[9] = target: Agrobacterium tumefaciens AtThuE sensor FLIPsuc4μ variant D115N (Agrobacterium fabrum, UniProt A9CF11, D135N/N212D); experiment: FRET ratio change of D115N mutant; assay type: binding
Experimental: as §3
To expand the dynamic range of the sucrose sensor, site directed mutagenesis was used as described above to lower the binding affinity of the sucrose binding domain. Affinity mutants of FLIPsuc4μ were generated. Alignment together with modeling of AtThuE with maltose binding proteins that have been crystallized helped predict residues important for ligand binding. […]

[10] = target: Agrobacterium tumefaciens AtThuE sensor FLIPsucW283A with linker shortened by 18 amino acids (FLIPsucW283A-18AA, FLIPThuEW283A-18AA) (Agrobacterium fabrum, UniProt A9CF11, N212D/W303A); experiment: FRET ratio change of short-linker sensor FLIPsucW283A-18AA; assay type: binding; details: FIG. 3
Experimental: as §3
In an attempt to improve the delta ratio of the sucrose sensor the sensor containing the W283A mutation was cloned into a construct with a shorter linker sequence between the GFP variants and the binding protein. Deuschle et al. (2005) has shown that the length of the linker sequence plays a major role in the maximum change in ratio. A construct corresponding to FLIPglu600μΔ5 was constructed which gives a sucrose sensor whose linker was shortened by 18 amino acids (FLIPsucW283A-18AA). […]

[11] = target: Agrobacterium tumefaciens AtThuE sensor FLIPsuc4μ variant D115A (FLIPsuc1m, FLIPsucD115A) (Agrobacterium fabrum, UniProt A9CF11, D135A/N212D); experiment: in vitro FRET titration of affinity mutant FLIPsuc1m; assay type: binding; details: for pKd: Kd; for Δratio (delta ratio): no binding to saturated binding
Experimental: as §3, §5

[12] = 20 mM MOPS pH 7, FRET titration
[13] = in vitro, no binding to saturated binding

OC[C@H]1O[C@H](OC[C@H]2OC(O)(CO)[C@@H](O)[C@@H]2O)[C@H](O)[C@@H](O)[C@@H]1O (some centres unmarked) [palatinose]
binding (extent relative to sucrose) [1]: to lesser extent

C[C@H]1O[C@H](O[C@H]2[C@H](O)[C@@H](O)[C@@H](O[C@H]3[C@H](O)[C@@H](O)C(O)O[C@@H]3CO)O[C@@H]2CO)[C@H](O)[C@@H](O)[C@@H]1N[C@H]1C=C(CO)[C@@H](O)[C@H](O)[C@H]1O (some centres unmarked) [acarbose]
inhibition of uptake of radiolabeled maltose [2]: inhibited

OC[C@H]1O[C@@H](O[C@H]2[C@H](O)[C@@H](O)C(O)O[C@@H]2CO)[C@H](O)[C@@H](O)[C@@H]1O (some centres unmarked) [cellobiose]
recognition (binding) ([1]; even after addition of higher sugar concentrations (50× Kd)): not recognized

OC[C@H]1OC(O)(CO)[C@@H](O[C@H]2O[C@H](CO)[C@@H](O)[C@H](O)[C@H]2O)[C@@H]1O (some centres unmarked) [turanose]
binding (extent relative to sucrose) [1]: to the same extent or better than sucrose

OC[C@H]1O[C@@](CO)(O[C@H]2O[C@H](CO)[C@@H](O)[C@H](O)[C@H]2O)[C@@H](O)[C@@H]1O [sucrose]
change in FRET on titration ([1]; concentration-dependent, FIG. 1B): concentration-dependent decrease in FRET | Δratio (maximum ratio change) ([1]; in vitro, no binding to saturated binding, listed as Sucrose): 0.18 | Hill coefficient ([1]; sucrose titration, pH 7): 1.04 | pKd [3]: 5.43 | pKd [4, 12]: 2.54 | pKd ([4]; FRET titration): 2.54 | Δratio (delta ratio) [4]: ~0.4 | Δratio (delta ratio) ([4]; listed as Sucrose): 0.36 | pKd [5]: 1.34 | Δratio [5, 13]: 0.4 | pKd [6]: 1.84 | Δratio [6, 13]: 0.14 | pKd ([7]; Kd, in vitro, 20 mM MOPS pH 7, FRET titration): 4.06 | Δratio [7, 13]: 0.29 | affinity for sucrose relative to maltose ([7]; ratio of Kd): three times higher than for maltose | pKd [8]: 5.00 | Δratio (change in ratio) [8]: 0.1-0.15 | Δratio (change in ratio) ([8]; listed as Sucrose): 0.12 | change in ratio upon addition of sucrose [9]: no longer seen | ratio change relative to original construct (FLIPsucW283A) [10]: 3 fold | pKd [11, 12]: 2.87 | pKd ([11]; FRET titration): 2.85 | Δratio (delta ratio) [11]: at least 0.6 | Δratio (delta ratio) ([11]; listed as Sucrose): 0.68

cyclodextrins
inhibition of uptake of radiolabeled maltose [2]: inhibited

Reference: patent publication US8173863B2, “Sucrose biosensors and methods of using the same” (Carnegie Institution of Washington, priority 2005, dated 2012)
